{"source": "patent US11318134B2", "about": "“Benzamide compounds” (priority 2018, dated 2022)", "key": {"Bcl-2": {"target": "Bcl-2 (Homo sapiens (Human), UniProt P10415)", "sequence (P10415 whole entry)": "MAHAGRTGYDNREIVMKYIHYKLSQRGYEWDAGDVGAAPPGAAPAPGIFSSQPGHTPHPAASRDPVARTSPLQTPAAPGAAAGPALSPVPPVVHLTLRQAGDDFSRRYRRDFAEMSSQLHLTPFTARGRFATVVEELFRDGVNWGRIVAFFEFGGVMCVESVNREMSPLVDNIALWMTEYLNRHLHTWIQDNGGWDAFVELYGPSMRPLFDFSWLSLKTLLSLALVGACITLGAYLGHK", "assay": "Bcl-2 protein family binding assay (Bcl2scan platform), Bcl-2", "details": "BIM peptide ligand, 11-point dilution, read-out: Bc1-2 Kd (nm)", "description": "(§1) E. coli were grown to log-phase and infected with T7 phage from a frozen stock (multiplicity of infection=0.4) and incubated with shaking at 32° C. until lysis (90-150 minutes). The lysates were centrifuged (5,000×g) and filtered (0.2 μm) to remove cell debris. […] The liganded beads were blocked with excess biotin and washed with blocking buffer (SeaBlock (Pierce), 1% BSA, 0.05% Tween 20, 1 mM DTT) to remove unbound ligand and to reduce non-specific phage binding. […] Test compounds were prepared as 100× stocks in 100% DMSO. Kds were determined using an 11-point 3-fold compound dilution series with one DMSO control point. […] The compounds were then diluted directly into the assays such that the final concentration of DMSO was 0.9%. All reactions performed in polypropylene 384-well plates. Each was a final volume of 0.02 ml. […] The BCL2 concentration in the eluates was measured by qPCR. Binding constants (Kds) were calculated with a standard dose-response curve using the Hill equation:\n(§2) [formula] The Hill Slope was set to −1. Curves were fitted using a non-linear least square fit with the Levenberg-Marquardt algorithm."}, "Bcl-XL": {"target": "Bcl-XL (Homo sapiens (Human), UniProt Q07817)", "sequence (Q07817 whole entry)": "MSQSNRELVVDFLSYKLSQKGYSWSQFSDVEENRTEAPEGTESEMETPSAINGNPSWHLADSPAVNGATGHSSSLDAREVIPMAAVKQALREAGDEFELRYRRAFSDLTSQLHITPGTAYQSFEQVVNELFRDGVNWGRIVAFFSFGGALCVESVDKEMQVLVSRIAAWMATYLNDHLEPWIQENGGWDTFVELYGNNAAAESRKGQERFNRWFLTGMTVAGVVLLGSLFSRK", "assay": "Bcl-2 protein family binding assay (Bcl2scan platform), Bcl-XL", "details": "BIM peptide ligand, 11-point dilution, read-out: Bc1-XL Kd (nm)", "description": "as §1, §2"}, "RS4;11 cells": {"test_system": "RS4;11 cells", "assay": "RS4;11 cell proliferation assay (CellTiter-Glo)", "type": "cell-based", "details": "Homo sapiens, RS4-11, 48 h, read-out: RS4;11 (nM), CTG IC50", "description": "Cell proliferation was measured using the CellTiter-Glo® Luminescent Cell Viability Assay. The assay involved the addition of a single reagent (CellTiter-Glo® Reagent) directly to cells cultured in serum-supplemented medium.\nEach compound evaluated was prepared as a DMSO stock solution (10 mM). Compounds were tested in duplicate on each plate, with a 10-point serial dilution curve (1:3 dilution). Compound treatment (1.0 μL) was added from the compound dilution plate to the cell plate. The highest compound concentration was 10 μM (final), with a 0.1% final DMSO concentration. Plates were then incubated at 37° C., 5% CO2. After 48 h of compound treatment for RS4;11 or 72 h for NCI-H1963, cell plates were equilibrated at rt for approximately 30 mins. An equi-volume amount of CellTiter-Glo® Reagent (40 μL) was added to each well. […] Luminescence was recorded using a Envision plate reader according to CellTiter-Glo protocol. IC50 of each compound was calculated using GraphPad Prism by nonlinear regression analysis."}}}
{"smiles": "CC1(C)CCC(CN2CCN(c3ccc(C(=O)NS(=O)(=O)c4ccc(NCC5CCOCC5)c([N+](=O)[O-])c4)c(Oc4cnc5[nH]ccc5c4)c3)CC2)=C(C23CC(Cl)(C2)C3)C1", "note": "[Example 1, 2-(1H-Pyrrolo[2,3-b]pyridin-5-yl-oxy)-4-(4-((2-(3-chlorobicyclo[1.1.1]pentan-1-yl)-4,4-dimethylcyclohex-1-en-yl)methyl)piperazin-1-yl)-N-(3-nitro-4-((tetrahydro-2H-pyran-4-yl)methylamino)phenylsulfonyl)benzamide]", "values": [{"measurement": "Kd", "setting": "Bcl-2", "value": "< 10", "unit": "nM"}, {"measurement": "Kd", "setting": "Bcl-XL", "value": "> 100", "unit": "nM"}, {"measurement": "IC50", "setting": "RS4;11 cells", "value": "< 100", "unit": "nM"}]}
{"smiles": "CC1(C)CCC(CN2CCN(c3ccc(C(=O)NS(=O)(=O)c4ccc(NCC5CCOCC5)c([N+](=O)[O-])c4)c(Oc4cnc5[nH]ccc5c4)c3)CC2)=C(C23CC(C)(C2)C3)C1", "note": "[Example 9, 2-(1H-pyrrolo[2,3-b]pyridin-5-yloxy)-4-(4-((4,4-dimethyl-2-(3-methylbicyclo[1.1.1]pentan-1-yl)cyclohex-1-enyl)methyl)piperazin-1-yl)-N-(3-nitro-4-((tetrahydro-2H-pyran-4-yl)methylamino)phenylsulfonyl)benzamide]", "values": [{"measurement": "Kd", "setting": "Bcl-2", "value": "< 10", "unit": "nM"}, {"measurement": "Kd", "setting": "Bcl-XL", "value": "> 100", "unit": "nM"}, {"measurement": "IC50", "setting": "RS4;11 cells", "value": "< 100", "unit": "nM"}]}
{"smiles": "CC1(C)CCC(CN2CCN(c3ccc(C(=O)NS(=O)(=O)c4ccc(NCC5CCOCC5)c([N+](=O)[O-])c4)c(Oc4cnc5[nH]ccc5c4)c3)CC2)=C(C23CC(F)(C2)C3)C1", "note": "[Example 10, 2-(1H-pyrrolo[2,3-b]pyridin-5-yloxy)-4-(4-((2-(3-fluorobicyclo[1.1.1]pentan-1-yl)-4,4-dimethylcyclohex-1-enyl)methyl)piperazin-1-yl)-N-(3-nitro-4-((tetrahydro-2H-pyran-4-yl)methylamino)phenylsulfonyl)benzamide]", "values": [{"measurement": "Kd", "setting": "Bcl-2", "value": "< 10", "unit": "nM"}, {"measurement": "Kd", "setting": "Bcl-XL", "value": "> 100", "unit": "nM"}, {"measurement": "IC50", "setting": "RS4;11 cells", "value": "< 100", "unit": "nM"}]}
{"smiles": "CC1(C)CCC(CN2CCN(c3ccc(C(=O)NS(=O)(=O)c4ccc(NCC5CC6(CCOCC6)C5)c([N+](=O)[O-])c4)c(Oc4cnc5[nH]ccc5c4)c3)CC2)=C(C23CC(C)(C2)C3)C1", "note": "[Example 11, 2-((1H-pyrrolo[2,3-b]pyridin-5-yl)oxy)-N-((4-(((7-oxaspiro[3.5]nonan-2-yl)methyl)amino)-3-nitrophenyl)sulfonyl)-4-(4-((4,4-dimethyl-2-(3-methylbicyclo[1.1.1]pentan-1-yl)cyclohex-1-en-1-yl)methyl)piperazin-1-yl)benzamide]", "values": [{"measurement": "Kd", "setting": "Bcl-2", "value": "< 10", "unit": "nM"}, {"measurement": "Kd", "setting": "Bcl-XL", "value": "> 100", "unit": "nM"}, {"measurement": "IC50", "setting": "RS4;11 cells", "value": "< 100", "unit": "nM"}]}
{"smiles": "CN1CCC(F)(CNc2ccc(S(=O)(=O)NC(=O)c3ccc(N4CCN(CC5=C(C67CC(C)(C6)C7)CC(C)(C)CC5)CC4)cc3Oc3cnc4[nH]ccc4c3)cc2[N+](=O)[O-])CC1", "note": "[Example 13, 2-((1H-pyrrolo[2,3-b]pyridin-5-yl)oxy)-4-(4-((4,4-dimethyl-2-(3-methylbicyclo[1.1.1]pentan-1-yl)cyclohex-1-en-1-yl)methyl)piperazin-1-yl)-N-((4-(((4-fluoro-1-methylpiperidin-4-yl)methyl)amino)-3-nitrophenyl)sulfonyl)benzamide]", "values": [{"measurement": "Kd", "setting": "Bcl-2", "value": "< 10", "unit": "nM"}, {"measurement": "Kd", "setting": "Bcl-XL", "value": "> 100", "unit": "nM"}, {"measurement": "IC50", "setting": "RS4;11 cells", "value": "< 100", "unit": "nM"}]}
{"smiles": "CC1(C)CCC(CN2CCN(c3ccc(C(=O)NS(=O)(=O)c4ccc(OCC5(F)CCOCC5)c([N+](=O)[O-])c4)c(Oc4cnc5[nH]ccc5c4)c3)CC2)=C(C23CC(C)(C2)C3)C1", "note": "[Example 16, 2-((1H-pyrrolo[2,3-b]pyridin-5-yl)oxy)-4-(4-((4,4-dimethyl-2-(3-methylbicyclo[1.1.1]pentan-1-yl)cyclohex-1-en-1-yl)methyl)piperazin-1-yl)-N-((4-((4-fluorotetrahydro-2H-pyran-4-yl)methoxy)-3-nitrophenyl)sulfonyl)benzamide]", "values": [{"measurement": "Kd", "setting": "Bcl-2", "value": "< 10", "unit": "nM"}, {"measurement": "Kd", "setting": "Bcl-XL", "value": "> 100", "unit": "nM"}, {"measurement": "IC50", "setting": "RS4;11 cells", "value": "< 100", "unit": "nM"}]}
{"smiles": "CN1CCOC(CNc2ccc(S(=O)(=O)NC(=O)c3ccc(N4CCN(CC5=C(C67CC(C)(C6)C7)CC(C)(C)CC5)CC4)cc3Oc3cnc4[nH]ccc4c3)cc2[N+](=O)[O-])C1", "note": "(centres unmarked) [Example 17, 2-((1H-pyrrolo[2,3-b]pyridin-5-yl)oxy)-4-(4-((4,4-dimethyl-2-(3-methylbicyclo[1.1.1]pentan-1-yl)cyclohex-1-en-1-yl)methyl)piperazin-1-yl)-N-((4-(((4-methylmorpholin-2-yl)methyl)amino)-3-nitrophenyl)sulfonyl)benzamide]", "values": [{"measurement": "Kd", "setting": "Bcl-2", "value": "< 10", "unit": "nM"}, {"measurement": "Kd", "setting": "Bcl-XL", "value": "10 to 100", "unit": "nM"}, {"measurement": "IC50", "setting": "RS4;11 cells", "value": "< 100", "unit": "nM"}]}
{"smiles": "CN1CCO[C@H](CNc2ccc(S(=O)(=O)NC(=O)c3ccc(N4CCN(CC5=C(C67CC(C)(C6)C7)CC(C)(C)CC5)CC4)cc3Oc3cnc4[nH]ccc4c3)cc2[N+](=O)[O-])C1", "note": "[Example 18, (R)-2-((1H-pyrrolo[2,3-b]pyridin-5-yl)oxy)-4-(4-((4,4-dimethyl-2-(3-methylbicyclo[1.1.1]pentan-1-yl)cyclohex-1-en-1-yl)methyl)piperazin-1-yl)-N-((4-(((4-methylmorpholin-2-yl)methyl)amino)-3-nitrophenyl)sulfonyl)benzamide]", "values": [{"measurement": "IC50", "setting": "RS4;11 cells", "value": "< 100", "unit": "nM"}]}
{"smiles": "CN1CCO[C@@H](CNc2ccc(S(=O)(=O)NC(=O)c3ccc(N4CCN(CC5=C(C67CC(C)(C6)C7)CC(C)(C)CC5)CC4)cc3Oc3cnc4[nH]ccc4c3)cc2[N+](=O)[O-])C1", "note": "[Example 19, (S)-2-((1H-pyrrolo[2,3-b]pyridin-5-yl)oxy)-4-(4-((4,4-dimethyl-2-(3-methylbicyclo[1.1.1]pentan-1-yl)cyclohex-1-en-1-yl)methyl)piperazin-1-yl)-N-((4-(((4-methylmorpholin-2-yl)methyl)amino)-3-nitrophenyl)sulfonyl)benzamide]", "values": [{"measurement": "IC50", "setting": "RS4;11 cells", "value": "< 100", "unit": "nM"}]}
{"smiles": "CCC12CC(C3=C(CN4CCN(c5ccc(C(=O)NS(=O)(=O)c6ccc(NCC7CCOCC7)c([N+](=O)[O-])c6)c(Oc6cnc7[nH]ccc7c6)c5)CC4)CCC(C)(C)C3)(C1)C2", "note": "[Example 23, 2-(1H-pyrrolo[2,3-b]pyridin-5-yloxy)-4-(4-((2-(3-ethylbicyclo[1.1.1]pentan-1-yl)-4,4-dimethylcyclohex-1-enyl)methyl)piperazin-1-yl)-N-(3-nitro-4-((tetrahydro-2H-pyran-4-yl)methylamino)phenylsulfonyl)benzamide]", "values": [{"measurement": "Kd", "setting": "Bcl-2", "value": "< 10", "unit": "nM"}, {"measurement": "Kd", "setting": "Bcl-XL", "value": "> 100", "unit": "nM"}, {"measurement": "IC50", "setting": "RS4;11 cells", "value": "< 100", "unit": "nM"}]}
{"smiles": "CCC12CC(C3=C(CN4CCN(c5ccc(C(=O)NS(=O)(=O)c6ccc(NCC7(F)CCOCC7)c([N+](=O)[O-])c6)c(Oc6cnc7[nH]ccc7c6)c5)CC4)CCC(C)(C)C3)(C1)C2", "note": "[Example 25, 2-((1H-pyrrolo[2,3-b]pyridin-5-yl)oxy)-4-(4-((2-(3-ethylbicyclo[1.1.1]pentan-1-yl)-4,4-dimethylcyclohex-1-en-1-yl)methyl)piperazin-1-yl)-N-((4-(((4-fluorotetrahydro-2H-pyran-4-yl)methyl)amino)-3-nitrophenyl)sulfonyl)benzamide]", "values": [{"measurement": "Kd", "setting": "Bcl-2", "value": "< 10", "unit": "nM"}, {"measurement": "Kd", "setting": "Bcl-XL", "value": "> 100", "unit": "nM"}, {"measurement": "IC50", "setting": "RS4;11 cells", "value": "< 100", "unit": "nM"}]}
{"smiles": "CCC12CC(C3=C(CN4CCN(c5ccc(C(=O)NS(=O)(=O)c6ccc(OCC7(F)CCOCC7)c([N+](=O)[O-])c6)c(Oc6cnc7[nH]ccc7c6)c5)CC4)CCC(C)(C)C3)(C1)C2", "note": "[Example 26, 2-((1H-pyrrolo[2,3-b]pyridin-5-yl)oxy)-4-(4-((2-(3-ethylbicyclo[1.1.1]pentan-1-yl)-4,4-dimethylcyclohex-1-en-1-yl)methyl)piperazin-1-yl)-N-((4-((4-fluorotetrahydro-2H-pyran-4-yl)methoxy)-3-nitrophenyl)sulfonyl)benzamide]", "values": [{"measurement": "Kd", "setting": "Bcl-2", "value": "< 10", "unit": "nM"}, {"measurement": "Kd", "setting": "Bcl-XL", "value": "> 100", "unit": "nM"}, {"measurement": "IC50", "setting": "RS4;11 cells", "value": "< 100", "unit": "nM"}]}
{"smiles": "CCC12CC(C3=C(CN4CCN(c5ccc(C(=O)NS(=O)(=O)c6ccc(NC[C@H]7CC[C@](C)(O)CC7)c([N+](=O)[O-])c6)c(Oc6cnc7[nH]ccc7c6)c5)CC4)CCC(C)(C)C3)(C1)C2", "note": "[Example 27, 2-((1H-pyrrolo[2,3-b]pyridin-5-yl)oxy)-4-(4-((2-(3-ethylbicyclo[1.1.1]pentan-1-yl)-4,4-dimethylcyclohex-1-en-1-yl)methyl)piperazin-1-yl)-N-((4-((((1r,4r)-4-hydroxy-4-methylcyclohexyl)methyl)amino)-3-nitrophenyl)sulfonyl)benzamide]", "values": [{"measurement": "Kd", "setting": "Bcl-2", "value": "< 10", "unit": "nM"}, {"measurement": "Kd", "setting": "Bcl-XL", "value": "> 100", "unit": "nM"}, {"measurement": "IC50", "setting": "RS4;11 cells", "value": "< 100", "unit": "nM"}]}
{"smiles": "CC1(C)CCC(CN2CCN(c3ccc(C(=O)NS(=O)(=O)c4ccc(NCC5CCOCC5)c([N+](=O)[O-])c4)c(Oc4cnc5[nH]ccc5c4)c3)CC2)=C(C23CC(C(F)(F)F)(C2)C3)C1", "note": "[Example 28, 2-((1H-pyrrolo[2,3-b]pyridin-5-yl)oxy)-4-(4-((4,4-dimethyl-2-(3-(trifluoromethyl)bicyclo[1.1.1]pentan-1-yl)cyclohex-1-en-1-yl)methyl)piperazin-1-yl)-N-((3-nitro-4-(((tetrahydro-2H-pyran-4-yl)methyl)amino)phenyl)sulfonyl)benzamide]", "values": [{"measurement": "Kd", "setting": "Bcl-2", "value": "< 10", "unit": "nM"}, {"measurement": "Kd", "setting": "Bcl-XL", "value": "> 100", "unit": "nM"}, {"measurement": "IC50", "setting": "RS4;11 cells", "value": "< 100", "unit": "nM"}]}
